Experimental data from patent US9017681B2, “Adenylyl cyclases as novel targets for antibactrial interventions” (Cornell Research Foundation, Inc., priority 2007, dated 2015).
Where two headings read alike, the source gives them in different places.

Biological target: T1, human sAC (Homo sapiens, UniProt Q96PN6)
T1 construct: made in house
T1 sequence (Q96PN6 1-469 limits assumed): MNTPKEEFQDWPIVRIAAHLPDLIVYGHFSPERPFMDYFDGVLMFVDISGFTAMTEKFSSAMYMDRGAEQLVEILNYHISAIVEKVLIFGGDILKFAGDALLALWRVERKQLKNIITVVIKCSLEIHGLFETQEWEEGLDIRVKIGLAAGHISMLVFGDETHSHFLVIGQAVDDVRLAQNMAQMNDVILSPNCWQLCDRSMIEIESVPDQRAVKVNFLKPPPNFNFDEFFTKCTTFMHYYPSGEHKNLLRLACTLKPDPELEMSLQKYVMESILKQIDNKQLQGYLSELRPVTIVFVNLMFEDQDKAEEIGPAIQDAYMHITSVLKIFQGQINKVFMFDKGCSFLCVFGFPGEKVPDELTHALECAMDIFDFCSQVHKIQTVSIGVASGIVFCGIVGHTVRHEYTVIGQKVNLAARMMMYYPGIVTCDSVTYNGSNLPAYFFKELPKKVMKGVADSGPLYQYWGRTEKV
Test: in vitro adenylyl cyclase assay with purified human sAC protein (cAMP by Correlate-EIA)
Assay type: biochemical
Protocol: Purified human sAC protein was used in an in vitro adenylyl cyclase assay. Purification of the protein is described in detail in Litvin et al. 2003. (J. Biol. Chem. 278:15922-15926). This paper also describes the general conditions for a sAC cyclase assay. The specific conditions for the in vitro assay are as follows.
For basal sAC activity, an assay master mixture with sufficient volume for all reactions was prepared containing:
100 U/ml creatine phosphokinase (CPK)
An aliquot of the master mixture was added to the purified human sAC. The assay mixture also included the indicated concentration of KH compound, or an equivalent volume of vehicle (i.e., DMSO) as control. The reaction was started by adding 5 mM ATP (total assay volume=100 μL). The reaction mixture was incubated at 30° C. for 30 minutes and then stopped by adding 100 μl […]. Stimulated assay conditions involve adding 40 mM bicarbonate and 5 mM CaCl2 to the above master mixture.
Cyclic AMP levels were measured in each sample using the Correlate-EIA Direct Cyclic AMP assay kit from Assay Designs as per manufacturers instructions.

[1] = 100 μM of compound, BASAL human sAC in vitro activity, read-out: % Inhibition (100 μM), hsACt-Basal
[2] = 100 μM of compound, stimulated human sAC in vitro activity, read-out: % Inhibition (100 μM), hsACt-Stim.
[3] = BASAL activity of human sAC in vitro (just Mg-ATP, no calcium or bicarbonate), read-out: hsACt-Basal approximate IC50 (or the dose range where the IC50 should lie)
[4] = stimulated activity of human sAC in vitro (calcium and bicarbonate stimulated), read-out: hsACt-Stim. approximate IC50 (or the dose range where the IC50 should lie)
[5] = 100 μM of compound, stimulated human sAC in vitro activity

With O=C(CSc1nc2ccccc2[nH]1)N/N=C/c1ccccc1C(=O)O [KH7.112] the inhibition at 100 µM [1] was 0%, the inhibition at 100 µM [2] was 0% and the IC50 [3] was > 100 µM. The IC50 [4] was > 100 µM.

C/C(=N/NC(=O)CSc1nc2ccccc2[nH]1)c1ccc(-c2ccccc2)cc1 [KH7.113] was tested, and the inhibition at 100 µM [1] was 80%, the inhibition at 100 µM [2] was 80% and the IC50 [3] was 10 to 100 µM. It also gave an IC50 [4] of 10 to 100 µM.

C/C(=N/NC(=O)CSc1nc2ccccc2[nH]1)c1ccc(Cl)c(Cl)c1 [KH7.115] gave an inhibition at 100 µM [1] of 80%, an inhibition at 100 µM [2] of 80% and an IC50 [3] of 10 to 100 µM. For the same molecule, the IC50 [4] was 10 to 100 µM.

For C/C(=N/NC(=O)CSc1nc2ccccc2[nH]1)c1cccnc1 [KH7.116], the “Activation, printed in column % Inhibition (100 μM), hsACt-Basal” value (100 μM of compound, BASAL human sAC in vitro activity) was “Activation 30%”, the “Activation, printed in column % Inhibition (100 μM), hsACt-Stim.” value [5] was “Activation 50%” and the IC50 [4] was 0.1 to 1 µM.

In the case of C/C(=N/NC(=O)CSc1nc2ccccc2[nH]1)c1ccc(F)cc1 [KH7.118], the inhibition at 100 µM [1] is reported as 0%, the inhibition at 100 µM [2] is reported as 0% and the IC50 [3] is reported as > 100 µM. For the same molecule, the IC50 [4] was > 100 µM.

C/C(=N/NC(=O)CSc1nc2ccccc2[nH]1)c1cccc(Br)c1 [KH7.119] showed an inhibition at 100 µM [1] of 60%, an inhibition at 100 µM [2] of 80% and an IC50 [3] of 10 to 100 µM. For the same molecule, the IC50 [4] was 10 to 100 µM.

Molecule O=C(CSc1nc2ccccc2[nH]1)N/N=C/c1ccccc1I [KH7.121] has an inhibition at 100 µM [1] of 90%, an inhibition at 100 µM [2] of 90% and an IC50 [3] of 10 to 100 µM. It also gave an IC50 [4] of 10 to 100 µM.

Work on O=C(CSc1nc2ccccc2[nH]1)N/N=C/c1ccc([N+](=O)[O-])cc1 [KH7.122] yielded an inhibition at 100 µM [1] of 50% and an inhibition at 100 µM [2] of 50%.

In the case of O=C(CSc1nc2ccccc2[nH]1)N/N=C/c1cccnc1 [KH7.123], the inhibition at 100 µM [1] is reported as 0%, the inhibition at 100 µM [2] is reported as 0% and the IC50 [3] is reported as > 100 µM. For the same molecule, the IC50 [4] was > 100 µM.

For COc1cc(/C=N/NC(=O)CSc2nc3ccccc3[nH]2)cc(OC)c1OC(C)=O [KH7.124], the inhibition at 100 µM [1] was 40%, the inhibition at 100 µM [2] was 30% and the IC50 [3] was > 100 µM. For the same molecule, the IC50 [4] was > 100 µM.

For O=C(CSc1nc2ccccc2[nH]1)N/N=C/c1cccc2ccccc12 [KH7.126], the inhibition at 100 µM [1] was 40%, the inhibition at 100 µM [2] was 50% and the IC50 [3] was > 100 µM. For the same molecule, the IC50 [4] was 10 to 100 µM.

O=C(CSc1nc2ccccc2[nH]1)N/N=C/c1cccc(Cl)c1 [KH7.128] gave an inhibition at 100 µM [1] of 50% and an inhibition at 100 µM [2] of 50%.

O=C(CSc1nc2ccccc2[nH]1)N/N=C/c1c(Cl)cccc1Cl [KH7.130] was tested, and the inhibition at 100 µM [1] was 50% and the inhibition at 100 µM [2] was 50%.

O=C(CSc1nc2ccccc2[nH]1)N/N=C/c1ccccc1Br [KH7.131] showed an inhibition at 100 µM [1] of 60%, an inhibition at 100 µM [2] of 60% and an IC50 [3] of 10 to 100 µM. For the same molecule, the IC50 [4] was 10 to 100 µM.

With COc1ccc(/C=N/NC(=O)CSc2nc3ccccc3[nH]2)cc1 [KH7.132] the inhibition at 100 µM [1] was 10%, the inhibition at 100 µM [2] was 0% and the IC50 [3] was > 100 µM. The IC50 [4] was > 100 µM.

Work on O=C(CSc1nc2ccccc2[nH]1)N/N=C/c1ccccc1Cl [KH7.133] yielded an inhibition at 100 µM [1] of 60% and an IC50 [3] of 10 to 100 µM.

With Cc1ccc(/C=N/NC(=O)CSc2nc3ccccc3[nH]2)cc1 [KH7.134] the inhibition at 100 µM [1] was 0%, the inhibition at 100 µM [2] was 0% and the IC50 [3] was > 100 µM. The IC50 [4] was > 100 µM.

For CC(C)c1ccc(/C=N/NC(=O)CSc2nc3ccccc3[nH]2)cc1 [KH7.135], the inhibition at 100 µM [1] was 50%, the inhibition at 100 µM [2] was 0% and the IC50 [4] was > 100 µM.

With CCN(CC)c1ccc(/C=N/NC(=O)CSc2nc3ccccc3[nH]2)cc1 [KH7.136] the inhibition at 100 µM [1] was 80%, the inhibition at 100 µM [2] was 40% and the IC50 [3] was 10 to 100 µM. The IC50 [4] was > 100 µM.

For O=C(CSc1nc2ccccc2[nH]1)N/N=C/c1ccc(Cl)cc1 [KH7.137], the inhibition at 100 µM [1] was 0%, the “Activation, printed in column % Inhibition (100 μM), hsACt-Stim.” value [5] was “Activation 100%” and the IC50 [3] was > 100 µM. It also gave an IC50 [4] of 30 to 100 µM.

In the case of C/C(=N\NC(=O)CSc1nc2ccccc2[nH]1)c1ccc([N+](=O)[O-])cc1 [KH7.138], the inhibition at 100 µM [1] is reported as 30%, the inhibition at 100 µM [2] is reported as 25% and the IC50 [3] is reported as > 100 µM. For the same molecule, the IC50 [4] was > 100 µM.

In the case of Cn1c(SCC(=O)N/N=C/c2cc(Br)ccc2O)nc2ccccc21 [KH7.139], the “% Inhibition (100 μM), hsACt-Basal” value (100 μM of compound, BASAL human sAC in vitro activity, 100 µM) is reported as 70%, the inhibition at 100 µM [1] is reported as 75% and the “% Inhibition (100 μM), hsACt-Stim.” value (100 μM of compound, stimulated human sAC in vitro activity, 100 µM) is reported as 70%. For the same molecule, the inhibition at 100 µM [2] was 75%, the IC50 [3] was 1 to 10 µM and the IC50 [4] was 1 to 10 µM.

Cn1c(SCC(=O)N/N=C/c2ccccn2)nc2ccccc21 [KH7.140] was tested, and the inhibition at 100 µM [1] was 0%, the inhibition at 100 µM [2] was 0% and the IC50 [3] was > 100 µM. For the same molecule, the IC50 [4] was > 100 µM.

O=C(CSc1nc2ccccc2n1Cc1ccccc1)N/N=C/c1cc(Br)ccc1O [KH7.141] showed an inhibition at 100 µM [1] of 80%, an inhibition at 100 µM [2] of 80% and an IC50 [3] of 1 to 10 µM. It also gave an IC50 [4] of 1 µM.

In the case of Cc1ccc(Cn2c(SCC(=O)N/N=C/c3ccncc3)nc3ccccc32)cc1 [KH7.142], the inhibition at 100 µM [1] is reported as 0%, the “Activation in words, printed in column % Inhibition (100 μM), hsACt-Stim.” value (@ 100, stimulated human sAC in vitro activity) is reported as “Activation @ 100” and the IC50 [3] is reported as > 100 µM. It also gave an IC50 [4] of 1 to 10 µM.

Cc1ccc(Cn2c(SCC(=O)N/N=C/c3cc(Br)ccc3O)nc3ccccc32)cc1 [KH7.143] gave an inhibition at 100 µM [1] of 75%, an inhibition at 100 µM [2] of 75% and an IC50 [3] of 1 µM. It also gave an IC50 [4] of 1 µM.

Molecule O=C(CSc1nc2ccccc2n1Cc1ccc(Cl)cc1)N/N=C\c1cc(Br)ccc1O [KH7.144] has an inhibition at 100 µM [1] of 70%, an inhibition at 100 µM [2] of 80% and an IC50 [3] of 1 µM. The IC50 [4] was 1 µM.

For CCOc1ccc(/C=N/NC(=O)CSc2nc3ccccc3[nH]2)cc1OC [KH7.145], the inhibition at 100 µM [1] was 0%, the inhibition at 100 µM [2] was 20% and the IC50 [3] was > 100 µM. For the same molecule, the IC50 [4] was > 100 µM.

With O=C(CSc1nc2ccccc2[nH]1)N/N=C/c1ccc(Cl)c([N+](=O)[O-])c1 [KH7.146] the inhibition at 100 µM [1] was 50%, the inhibition at 100 µM [2] was 40% and the IC50 [4] was > 100 µM.

O=C(CSc1nc2ccccc2[nH]1)N/N=C/c1cc(Br)cc(Br)c1O [KH7.149] showed an inhibition at 100 µM [1] of 90%, an inhibition at 100 µM [2] of 85% and an IC50 [3] of 1 µM. It also gave an IC50 [4] of 1 µM.

O=C(CSc1nc2ccccc2[nH]1)N/N=C/c1ccc(C(F)(F)F)cc1 [KH7.150] was tested, and the inhibition at 100 µM [1] was 0%, the inhibition at 100 µM [2] was 0% and the IC50 [3] was > 100 µM. For the same molecule, the IC50 [4] was > 100 µM.

COc1ccc(/C=N/NC(=O)CSc2nc3ccccc3[nH]2)cc1Br [KH7.151] gave an inhibition at 100 µM [1] of 75%, an inhibition at 100 µM [2] of 50% and an IC50 [3] of 10 to 100 µM. It also gave an IC50 [4] of 10 to 100 µM.

O=C(CSc1nc2ccccc2[nH]1)N/N=C/c1cc(Br)ccc1F [KH7.152] showed an inhibition at 100 µM [1] of 60% and an IC50 [3] of 10 to 100 µM.

In the case of O=C(CSc1nc2ccccc2[nH]1)N/N=C/c1cccc(F)c1 [KH7.153], the inhibition at 100 µM [1] is reported as 0%, the inhibition at 100 µM [2] is reported as 0% and the IC50 [3] is reported as > 100 µM. For the same molecule, the IC50 [4] was > 100 µM.

Work on O=C(CSc1nc2ccccc2[nH]1)N/N=C/c1cc(I)cc(I)c1O [KH7.154] yielded an inhibition at 100 µM [1] of 100%, an inhibition at 100 µM [2] of 85% and an IC50 [3] of 0.1 to 1 µM. The IC50 [4] was 0.1 to 1 µM.

O=C(CSc1nc2ccccc2[nH]1)N/N=C/c1cc([N+](=O)[O-])ccc1Cl [KH7.155] was tested, and the inhibition at 100 µM [1] was 0%, the inhibition at 100 µM [2] was 0% and the IC50 [3] was > 100 µM. For the same molecule, the IC50 [4] was > 100 µM.
